Experimental data reported in US20260049101A1, “TOPICAL TREATMENT OF SKIN CANCER USING OLIGOPEPTIDES” (BACOBA AG, priority 2022, published 2026).
“Also recorded” adds a separate entry of the source. Like-named read-outs stand apart in the source and are kept apart here. Numbered stars: 1 amine (or outer) side, 2 acyl side, 3 side chain; on linkers, the order of the positions; unused ones are H or OH. Square brackets hold non-standard residues; d marks the D form. Peptide text beside a SMILES is read from it. * marks the point of attachment. X1 = CCC(=O)C[C@H](O)C[C@@H](C)C[C@H](N[*:1])C(=O)[*:2]; Hexenoyl(2E,4S-Me) = CC[C@H](C)/C=C/C(=O)*; Leu(3R-OH) = CC(C)[C@@H](O)[C@H](N)C(=O)O; Abu(4,4,4-F3) = N[C@@H](CC(F)(F)F)C(=O)O; NH((S)CH(Me)CH2NMe2) = C[C@@H](CN(C)C)N*; Pro(4S-Me) = C[C@@H]1CN[C@H](C(=O)O)C1; NH(1-CH2NMe2-cBu) = CN(C)CC1(N*)CCC1; Benzoyl(4-F) = O=C(c1ccc(F)cc1)*; hCha = N[C@@H](CCC1CCCCC1)C(=O)O; Aib = CC(C)(N)C(=O)O; βAla = NCCC(=O)O

Columns and labels:
[1] = tested on: cutaneous squamous cell carcinoma cell line SCC12; assay: In vitro anti-proliferative assay (resazurin) in SCC12; format: cell-based; conditions: SCC12, 72 hours
Text: Methodology. The cutaneous squamous cell carcinoma cell culture SCC12 was cultivated in keratinocyte-SFM media (KSFM, Cat #17005042, Gibco) supplemented with human recombinant epidermal growth factor 1-53 (EGF 1-53) and bovine pituitary extract (BFE).
Vehicle treated wells were set to 100% viability.

[2] = tested on: patient derived Basal Cell Carcinoma (BCC); format: cell-based, human; conditions: 20 μM, 4 days, vs DMSO; p<0.002
Text: Tumour material was harvested from an infiltrative basal cell carcinoma (BCC) from a patient's nose.

[3] = tested on: patient derived Basal Cell Carcinoma (BCC); format: cell-based, human; conditions: 20 μM, 4 days, vs DMSO
[4] = tested on: B16F10 xenografts in C57BL/6 mice; assay: In vivo efficacy test, dermal treatment of intradermal B16-F10 tumours (tumour volume); parameters: species or system mouse; conditions: 20 μl of 0.2% leucinostatin A dermally, treatment not continued longer than 7 days, observed to day 16
Description: (§1) In vivo efficacy test methodology. C57Bl/6 mice (Janvier Labs); females; 6-8 weeks old at beginning of the treatment. The tumour was induced through intradermal inoculation of 1×10^5 cells per mouse intradermally in the skin of the neck. A total of 24 mice were used (n=8 for vehicle, n=8 for 5% 6027, n=8 for leucinostatin A 0.2%). Test item was applied starting on day 1 after inoculation of the tumour cells. The test items of 20 μl of 5% 6027 and of 0.2% Leucinostatin A were applied dermally with a pipette once a day every day for up to 21 days to the intact skin area of about 1 cm^2 on the site were the B16-F10 cells had been injected. If ulceration occurred then the animal was removed from the test and sacrificed.
The read out was tumour volume measured three times a week expressed as tumour volume (in cm^3). Additionally, tumour samples were taken for histological analysis (Tumour FFPE) (2 mice per group).

[5] = Dermal tolerability in the in vivo efficacy test; parameters: species or system mouse
Description: as §1

**Q.** With `CN(C)CC1(NC(=O)CCNC(=O)C(C)(C)NC(=O)C(C)(C)NC(=O)[C@H](CC(F)(F)F)NC(=O)[C@H](CC(F)(F)F)NC(=O)C(C)(C)NC(=O)[C@H](CC(F)(F)F)NC(=O)[C@H](CCC2CCCCC2)NC(=O)[C@@H]2CCCN2C(=O)c2ccc(F)cc2)CCC1` [Compound 21372, (2S)-4-cyclohexyl-N-[(1S)-1-[(1-{[(1S)-1-{[(1S)-1-({1-[(1-{[2-({1-[(dimethylamino)methyl]cyclobutyl}carbamoyl)ethyl]carbamoyl}-1-methylethyl)carbamoyl]-1-methylethyl}carba-moyl)-3,3,3-trifluoropropyl]carbamoyl}-3,3,3-trifluoropropyl]carbamoyl}-1-methylethyl)carbamoyl]-3,3,3-trifluoropropyl]-2-{[(2S)-1-(4-fluorobenzoyl)pyrrolidin-2-yl]formamido}butanamide] ({Benzoyl(4-F)}-P[hCha][Abu(4,4,4-F3)][Aib][Abu(4,4,4-F3)][Abu(4,4,4-F3)][Aib][Aib][βAla]-{NH(1-CH2NMe2-cBu)}) as the molecule, how does the IC50 [1] read?
**A.** The IC50 was 442 nM.

**Q.** For `CS(=O)(=O)c1ccc(C(=O)Nc2ccc(Cl)c(-c3ccccn3)c2)c(Cl)c1` [Vismodegib, reference compound], which “cell proliferation (Ki67)” value [2] is on record?
**A.** Its value is “significantly reduced”.

**Q.** And the “apoptotic cells (TUNEL positive cells)” value [3]?
**A.** The value was “Significant increase”.

**Q.** And the “cell proliferation (Ki67)” value [3]?
**A.** The value was “significantly reduced”.

**Q.** Which results are given for `CCC(=O)C[C@H](O)C[C@@H](C)C[C@H](NC(=O)[C@@H]1C[C@H](C)CN1C(=O)/C=C/[C@@H](C)CC)C(=O)N[C@H](C(=O)NC(C)(C)C(=O)N[C@@H](CC(C)C)C(=O)N[C@@H](CC(C)C)C(=O)NC(C)(C)C(=O)NC(C)(C)C(=O)NCCC(=O)N[C@@H](C)CN(C)C)[C@H](O)C(C)C` [leucinostatin A, reference compound] ({Hexenoyl(2E,4S-Me)}-[Pro(4S-Me)][X1][Leu(3R-OH)][Aib]LL[Aib][Aib][βAla]-{NH((S)CH(Me)CH2NMe2)}; N-terminus and C-terminus assumed)?
**A.** reduction of tumour volume [4]: no significant reduction of tumour volume; skin irritation ([5]; 0.2% leucinostatin A (lowest test concentration)): strong skin irritation with destruction of the epidermis; also recorded: strong skin irritating effect; tolerability of dermal treatment ([5]; 0.2% leucinostatin A once a day): not tolerated
